Measurements from patent US12209079B2 (GENERAL INCORPORATED ASSOCIATION PHARMA VALLEY PROJECT …, priority 2017, dated 2025).
Structures can show the parent of a compound that is named as a salt.

Legend:
IDO in A431 cells = target: T1, IDO in A431 cells (Homo sapiens, UniProt P14902); test: IDO cell-based assay, kynurenine production in IFN-γ stimulated A431 cells; conditions: A-431, 24 h; final concentration of the compound 10 μM; rate relative to culture without compound
T1 construct: endogenous in cells; host or cells: A431 cells, IFN-γ stimulated
Experimental: A431 cells (3.0×10^5 cells/mL) suspended in a culture medium for assay (D-MEM; Wako 040-30095, 5% FBS, 50 units/mL penicillin, 50 μg/mL streptomycin, and 2 mM L-glutamine) were inoculated at 100 μL/well to a transparent 96-well flat-bottomed plate and cultured at 37° C. for 24 hours in 5% CO2. The culture medium was removed from the cells thus cultured. A tryptophan-containing culture medium (culture medium for assay supplemented with 178 μM L-tryptophan) was added at 80 μL/well, and further, a compound solution was added at 10 μL/well. The cells were preincubated for 1 hour. Then, the whole amount was brought to 100 μL/well by the addition of 10 μL/well of IFN-γ diluted into 100 ng/mL with a tryptophan-containing culture medium, and the cells were cultured for 24 hours. After the culture, absorbance was measured at 460 nm using SpectraMax MSSK (Molecular Devices, LLC) (background measurement). After the measurement, a kynurenine quantification reagent (prepared with 7% [v/v] aqueous trichloroacetic acid solution and a solution of 2% [w/v] p-dimethylbenzaldehyde in acetic acid at 2:5 [v/v]) was added at 200 μL/well and reacted for 5 minutes, followed by the measurement of absorbance at 460 nm again. The rate of kynurenine production was calculated according to the following expression. Rate of kynurenine production (%) for each compound in the case of using A431 cells={(Absorbance at 460 nm in the tryptophan-containing culture medium comprising the A431 cells and the solution of the compound of the present invention−Absorbance of the background)/(Absorbance at 460 nm in the tryptophan-containing culture medium without the addition of the compound solution−Absorbance of the background)}×100 TDO Cell-Based Assay Protocol

[1] = target: rhIDO (recombinant human IDO) (Homo sapiens, UniProt P14902); test: Enzyme assay using rhIDO (rate of kynurenine production); assay type: biochemical; conditions: 2 h; final concentration of the compound 10 μM; rate relative to reaction without compound; read-out: rhIDO-mediated kynurenine production
Experimental: Enzyme Assay Protocol Using rhIDO (Recombinant Human IDO)
4 μL of a compound solution was added to 176 μL of a rhIDO reaction solution (0.5 M potassium phosphate buffer (20 μL), 0.2 M ascorbic acid (20 μL), 0.5 mM methylene blue (4 μL), 10 mg/mL catalase (2 μL), H2O (128 μL), and rhIDO (2 μL)). The mixture was pipetted and preincubated at 37° C. for 10 minutes. Then, the whole amount was brought to 200 μL by the addition of 20 μL of a 2 mM aqueous tryptophan solution, and the mixture was pipetted again and reacted at 37° C. for 120 minutes. After the reaction, the enzymatic reaction was terminated by the addition of 40 μL of a 30% [v/v] aqueous trichloroacetic acid solution to the reaction solution. The mixture was well stirred by pipetting and heated at 50° C. for 15 minutes so that N-formylkynurenine was converted to kynurenine. The reaction solution thus heated was centrifuged (15,000 rpm, 5 min, 24° C.), and 150 μL of the supernatant was transferred to a transparent 96-well flat-bottomed plate, followed by the measurement of absorbance at 490 nm using SpectraMax MSSK (background measurement). After the measurement, a solution of 2% [w/v] p-dimethylbenzaldehyde in acetic acid was added at 150 μL/well and reacted for 5 minutes, followed by the measurement of absorbance at 490 nm again. The rate of kynurenine production was calculated according to the following expression. Rate of kynurenine production (%) for each compound in the case of using rhIDO={(Absorbance at 490 nm in the tryptophan-containing aqueous solution comprising rhIDO and the compound of the present invention−Absorbance of the background)/(Absorbance at 490 nm in the tryptophan-containing aqueous solution without the addition of the compound solution−Absorbance of the background)}×100 Enzyme Assay Protocol Using rhTDO (Recombinant Human TDO)

TDO in A172 cells = target: T2, TDO in A172 cells (Homo sapiens, UniProt P48775); test: TDO cell-based assay, kynurenine production in A172 cells; conditions: A 172; final concentration of the compound 10 μM; rate relative to culture without compound
T2 construct: endogenous in cells; host or cells: A172 cells
Experimental: A172 cells (3.0×10^5 cells/mL) suspended in a culture medium for assay (PRMI-1640; Wako 186-02155, 5% FBS, 50 units/mL penicillin, and 50 μg/mL streptomycin) were inoculated at 100 μL/well to a transparent 96-well flat-bottomed plate and cultured at 37° C. for 24 hours in 5% CO2. The culture medium was removed from the cells thus cultured. A culture medium for assay was added at 80 μL/well, and further, a compound solution was added at 10 μL/well. The cells were preincubated for 1 hour. Then, the whole amount was brought to 100 μL/well by the addition of 10 μL/well of a 5 mM aqueous tryptophan solution (final concentration of L-tryptophan: 524 μM), and the cells were cultured for 24 hours. After the culture, absorbance was measured at 460 nm using SpectraMax MSSK (Molecular Devices, LLC) (background measurement). After the measurement, a kynurenine quantification reagent (prepared with 7% [v/v] aqueous trichloroacetic acid solution and a solution of 2% [w/v] p-dimethylbenzaldehyde in acetic acid at 2:5 [v/v]) was added at 200 μL/well and reacted for 5 minutes, followed by the measurement of absorbance at 460 nm again. The rate of kynurenine production was calculated according to the following expression. Rate of kynurenine production (%) for each compound in the case of using A172 cells={(Absorbance at 460 nm in the tryptophan-containing culture medium comprising the A172 cells and the solution of the compound of the present invention−Absorbance of the background)/(Absorbance at 460 nm in the tryptophan-containing culture medium without the addition of the compound solution−Absorbance of the background)}×100

[2] = target: rhTDO (recombinant human TDO) (Homo sapiens, UniProt P48775); test: Enzyme assay using rhTDO (rate of kynurenine production); assay type: biochemical; conditions: 2 h; final concentration of the compound 10 μM; rate relative to reaction without compound; read-out: rhTDO-mediated kynurenine production
Experimental: 4 μL of a compound solution was added to 176 μL of a rhTDO reaction solution (0.5 M potassium phosphate buffer (20 μL), 0.2 M ascorbic acid (20 μL), 0.5 mM methylene blue (4 μL), 10 mg/mL catalase (2 μL), H2O (128 μL), and rhTDO (2 μL)). The mixture was pipetted and preincubated at 37° C. for 10 minutes. Then, the whole amount was brought to 200 μL by the addition of 20 μL of a 20 mM aqueous tryptophan solution, and the mixture was pipetted again and reacted at 37° C. for 120 minutes. After the reaction, the enzymatic reaction was terminated by the addition of 40 μL of a 30% [v/v] aqueous trichloroacetic acid solution to the reaction solution. The mixture was well stirred by pipetting and heated at 50° C. for 15 minutes so that N-formylkynurenine was converted to kynurenine. The reaction solution thus heated was centrifuged (15,000 rpm, 5 min, 24° C.), and 150 μL of the supernatant was transferred to a transparent 96-well flat-bottomed plate, followed by the measurement of absorbance at 490 nm using SpectraMax M5 SK (background measurement). After the measurement, a solution of 2% [w/v] p-dimethylbenzaldehyde in acetic acid was added at 150 μL/well and reacted for 5 minutes, followed by the measurement of absorbance at 490 nm again. The rate of kynurenine production was calculated according to the following expression. Rate of kynurenine production (%) for each compound in the case of using rhTDO={(Absorbance at 490 nm in the tryptophan-containing aqueous solution comprising rhTDO and the compound of the present invention−Absorbance of the background)/(Absorbance at 490 nm in the tryptophan-containing aqueous solution without the addition of the compound solution−Absorbance of the background)}×100 IDO Cell-Based Assay Protocol

rhIDO (recombinant human IDO), sequence (P14902 whole entry): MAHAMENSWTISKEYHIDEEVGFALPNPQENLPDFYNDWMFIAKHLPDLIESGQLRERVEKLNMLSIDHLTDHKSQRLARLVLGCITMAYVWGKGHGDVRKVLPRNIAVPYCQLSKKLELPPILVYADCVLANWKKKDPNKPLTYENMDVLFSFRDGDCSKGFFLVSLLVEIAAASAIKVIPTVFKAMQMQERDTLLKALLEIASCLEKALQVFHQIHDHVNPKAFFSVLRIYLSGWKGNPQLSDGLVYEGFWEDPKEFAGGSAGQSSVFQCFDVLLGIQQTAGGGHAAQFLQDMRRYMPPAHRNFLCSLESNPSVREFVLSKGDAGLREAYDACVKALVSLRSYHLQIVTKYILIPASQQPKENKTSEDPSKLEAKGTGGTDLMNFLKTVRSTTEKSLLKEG
T1 sequence (P14902 whole entry): as above
rhTDO (recombinant human TDO), sequence (P48775 whole entry): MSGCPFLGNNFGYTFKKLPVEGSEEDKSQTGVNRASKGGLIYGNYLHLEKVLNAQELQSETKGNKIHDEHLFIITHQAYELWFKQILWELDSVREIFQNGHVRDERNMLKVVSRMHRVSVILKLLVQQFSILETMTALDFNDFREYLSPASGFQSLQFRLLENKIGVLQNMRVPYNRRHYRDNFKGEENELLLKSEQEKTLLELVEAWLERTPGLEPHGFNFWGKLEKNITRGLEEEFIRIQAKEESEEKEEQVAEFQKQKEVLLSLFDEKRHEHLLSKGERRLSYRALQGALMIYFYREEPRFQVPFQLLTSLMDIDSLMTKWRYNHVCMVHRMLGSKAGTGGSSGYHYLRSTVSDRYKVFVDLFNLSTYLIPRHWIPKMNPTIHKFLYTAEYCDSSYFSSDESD
T2 sequence (P48775 whole entry): as above

Structure (SMILES)	remaining activity at 10 µM (IDO in A431 cells) [%]	remaining activity at 10 µM [1] [%]	remaining activity at 10 µM (TDO in A172 cells) [%]	remaining activity at 10 µM [2] [%]
COc1ccc(CSC(=N)N)c(CSC(=N)N)c1 [Compound 35, (4-Methoxy-1,2-phenylene)bis(methylene) dicarbamimidothioate dihydrobromide]	4	24	0	7
N=C(N)SCc1cc(Cl)c(Cl)cc1CSC(=N)N [Compound 36, (4,5-dichloro-1,2-phenylene)bis(methylene) dicarbamimidothioate dihydrobromide]	1	< 1	-15	< 3
Clc1ccc(CCN2CN=C(SCc3cc(Cl)c(Cl)cc3CSC3=NCN(CCc4ccc(Cl)c(Cl)c4)CN3)NC2)cc1Cl [Compound 38, 6,6′-(((4,5-Dichloro-1,2-phenylene)bis(methylene))bis(sulfanediyl))bis(3-(3,4-dichlorophenethyl)-1,2,3,4-tetrahydro-1,3,5-triazine)]	2	16	-1	37
Clc1ccc(CCN2CN=C(SCc3ccc(Br)cc3CSC3=NCN(CCc4ccc(Cl)c(Cl)c4)CN3)NC2)cc1Cl [Compound 39, 6,6′-(((4-Bromo-1,2-phenylene)bis(methylene))bis(sulfanediyl))bis(3-(3,4-dichlorophenethyl)-1,2,3,4-tetrahydro-1,3,5-triazine)]	0	7	7	38
c1csc(CCN2CN=C(SCc3ccccc3CSC3=NCN(CCc4cccs4)CN3)NC2)c1 [Compound 40, 1,2-Bis (((5-(2-(thiophen-2-yl)ethyl)-1,4,5,6-tetrahydro-1,3,5-triazin-2-yl)thio)methyl)benzene]	9	34	1	29
Clc1ccc(CN2CN=C(SCc3ccccc3CSC3=NCN(Cc4ccc(Cl)cc4)CN3)NC2)cc1 [Compound 41, 1,2-Bis(((5-(4-chlorobenzyl)-1,4,5,6-tetrahydro-1,3,5-triazin-2-yl)thio)methyl)benzene]	6	41	4	45
FC(F)(F)c1ccc(CN2CN=C(SCc3ccccc3CSC3=NCN(Cc4ccc(C(F)(F)F)cc4)CN3)NC2)cc1 [Compound 42, 1,2-Bis(((5-(4-(trifluoromethyl)benzyl)-1,4,5,6-tetrahydro-1,3,5-triazin-2-yl)thio)methyl)benzene]	6	68	2	41
Fc1ccc(CN2CN=C(SCc3ccccc3CSC3=NCN(Cc4ccc(F)c(F)c4)CN3)NC2)cc1F [Compound 43, 1,2-Bis(((5-(3,4-difluorobenzyl)-1,4,5,6-tetrahydro-1,3,5-triazin-2-yl)thio)methyl)benzene]	11	71	-2	41
Cc1ccc(C)c(CN2CN=C(SCc3ccccc3CSC3=NCN(Cc4cc(C)ccc4C)CN3)NC2)c1 [Compound 44, 1,2-Bis(((5-(2,5-dimethylbenzyl)-1,4,5,6-tetrahydro-1,3,5-triazin-2-yl)thio)methyl)benzene]	11	50	1	26
Fc1cccc(CN2CN=C(SCc3ccccc3CSC3=NCN(Cc4cccc(F)c4)CN3)NC2)c1 [Compound 45]	13	65	0	33
N=C(N)SCc1ccc(C(F)(F)F)cc1CSC(=N)N [Compound 46, dihydrobromide]	10	3	24	14
FC(F)(F)c1ccc(CSC2=NCN(CCc3ccc(Cl)c(Cl)c3)CN2)c(CSC2=NCN(CCc3ccc(Cl)c(Cl)c3)CN2)c1 [Compound 47, 6,6′-(((4-(Trifluoromethyl)-1,2-phenylene)bis(methylene))bis(sulfanediyl))bis(3-(3,4-dichlorophenethyl)-1,2,3,4-tetrahydro-1,3,5-triazine)]	15	16	45	53
